Laboratory results reported in US20250221983A1, “PHARMACEUTICAL COMPOSITION FOR PREVENTING RELAPSE INTO CANNABIS USE AND APPLICATION THEREOF” (Shenzhen ScienCare Pharmaceutical Co., Ltd, priority 2023, published 2025).
Entries after “also recorded” stand apart in the source; their conditions may differ.

Experiments:
Format in all cases: in vivo, LE rats
[1] = system: LE rat self-administration model; experiment: Environmental cue-induced relapse test in WIN55,212-2 self-administration model; conditions: rimonabant 2 mg/kg, implants 4 tablets/rat
Procedure: (§1) In each self-administration process, the effective lever was activated, and the injection system performed automatic administration ([…]). Each injection was about 0.1 mL, with a duration of 4 s-6 s. Meanwhile, each injection would be accompanied by the effective lever light turning on for 10 s and the room light turning off for 20 s. […] Data of activating the ineffective lever was recorded, but no drug injection was given. During the training, the computer automatically recorded the number of effective and ineffective lever presses and the number of injections. During the training, food was restricted to 12 g.

[2] = system: LE rat self-administration model; experiment: Drug (WIN55,212-2) and environmental cue-induced relapse test in self-administration model; conditions: rimonabant 2 mg/kg, implants 4 tablets/rat
Procedure: The rats received 2 h of environmental regression again. During the regression, only the spatial environment during the self-administration training was presented, without other clues such as lights and pump sounds as well as drug injections. The computer automatically recorded the number of behavioral responses of rats, and the regression was continued until reaching the criteria.
In the rimonabant group, rats were administered the rimonabant injection (2 mg/kg, ip) 15 min before the test through intraperitoneal injection at a dose of 2 mg per kilogram of body weight. In the control group, rats were administered normal saline 15 min before the test. In the implant administration groups, there would be no administration. All rats were administered cannabis (WIN55,212-2 injection 0.3 mg/kg, ip) through intraperitoneal injection at a dose of […] of body weight, and then a 2-h drug and environmental cue-induced relapse test was immediately performed. The cues were consistent with those of self-administration training, including levers and syringe pump sound, but no drug in the syringe pump. The number of injections and effective lever pressing data were recorded by the computer.
In the control group, rats were administered normal saline 15 min before the test, and in the implant groups, there would be no administration. All rats were administered WIN55,212-2 (0.3 mg/kg, i.p) through intraperitoneal administration, and then a 2-h drug and environmental cue-induced relapse test was immediately performed. The cues were consistent with those of self-administration training, including levers and syringe pump sound, but no drug in the syringe pump. The number of injections and effective lever pressing data were recorded by the computer.

[3] = system: LE rat self-administration; experiment: Addiction formation: WIN55,212-2 self-administration training
Procedure: as §1
In the control group and rimonabant group, sham operations were performed. After 3 days of postoperative care, addiction formation training was started on the fourth day.
In the control group and rimonabant group, rats were administered the corresponding compound 15 min before the daily training. The rimonabant was at a dosage of 2 mg/kg, i.p. In the control group, rats were administered normal saline, and in the implant administration groups, there would be no administration. The training operation was the same as the self-administration training in example 1. During the training, the computer automatically recorded the number of effective and ineffective lever presses and the number of injections. During the training, food was restricted to 12 g.

[4] = system: LE rat self-administration; experiment: Regression of drug-seeking behavior after self-administration training
Procedure: After the establishment of the self-administration model, the rats received 2 h of environmental regression for each round of regression training. During the regression, only the spatial environment and lever during the training were presented, without other clues such as lights and pump sounds as well as drug injections. The computer automatically recorded the number of behavioral responses of rats, and the rats reached the regression criteria (i.e., the total number of effective lever presses decreased to 20% of the total number of effective lever presses on the first day of the regression training or less than 10 times).

[5] = 2 h environmental cue-induced relapse test, n = 10
[6] = last regression before cue test, n = 10
[7] = 2 h test after WIN55,212-2 ip, n = 10
[8] = re-regression before cue + drug test, n = 10
[9] = female LE rats, rimonabant 2 mg/kg, implants 4 tablets/rat, n = 10

For `Cc1c(C(=O)NN2CCCCC2)nn(-c2ccc(Cl)cc2Cl)c1-c1ccc(Cl)cc1` [Rimonabant], the “Number of effective lever presses, Cue priming” value [1, 5] was 57.70 ± 10.27, the “Number of ineffective lever presses, Cue priming” value [1, 5] was 12.10 ± 3.33 and the “Number of effective lever presses, Last-Ext” value [1, 6] was 6.80 ± 1.62. For the same molecule, the “Number of ineffective lever presses, Last-Ext” value [1, 6] was 3.10 ± 0.86, the “cue-induced relapse behavior (number of effective lever presses compared with the control group), in words” value [1] was “no significant inhibition effect; also recorded: not significant” and the “Number of effective lever presses, Cue + drug priming” value [2, 7] was 63.50 ± 16.15. For the same molecule, the “Number of ineffective lever presses, Cue + drug priming” value [2, 7] was 8.10 ± 2.08, the “Number of effective lever presses, Re-Ext” value [2, 8] was 10.30 ± 2.72 and the “Number of ineffective lever presses, Re-Ext” value [2, 8] was 5.20 ± 3.0. For the same molecule, the “cue and drug-induced relapse behavior (number of effective lever presses compared with the control group), in words” value [2] was “no significant inhibition effect; also recorded: not significant”, the “inhibition of the increase in the number of effective lever presses caused by addiction formation of win55,212-2, in words” value ([3]; compared with the control group) was “significantly inhibited; also recorded: significant inhibition effect” and the “Addiction formation (26 days): Number of effective lever presses” value [3, 9] was 45.70 ± 8.21. For the same molecule, the “Addiction formation (26 days): Number of ineffective lever presses” value [3, 9] was 9.49 ± 1.05, the “effect on the regression process of cannabis addiction, in words” value ([4]; compared with other groups) was “may accelerate the regression process and reduce the regression days” and the “Regression (13 sessions): First stabilization” value [4, 9] was 7 days. For the same molecule, the “Regression (13 sessions): Number of effective lever presses” value [4, 9] was 9.27 ± 2.21.
